These results are taken from patent US12649735B2 (HAIHE BIOPHARMA CO., LTD., priority 2019, dated 2026).

By IC50 is commonly meant the midpoint of a concentration-inhibition curve. A higher IC50 goes with weaker potency.

Test [1] has as its target T1, bromodomain protein BRD4 BD1 (Homo sapiens, UniProt O60885).
T1 construct: The proteins BRD4 BD1/BD2 used in the experiment were purchased from Active Motif Company (Cat. No. 31380/31446); purchased Active Motif 31380
Briefly: HTRF in vitro assay, inhibitory activity against BRD4 BD1. The class given is binding. To be noted: BRD4(1) 30 nM in final system. Here is the method:
In this example, the half inhibitory activity (IC50) of the compounds of the present invention against the bromodomain protein BRD4 BD1 was determined.
(§1) The inhibitory activity of the compound against BRD4 BD1 was determined by using Homogeneous Time-Resolved Fluorescence (HTRF).
(§2) The proteins BRD4 BD1/BD2 used in the experiment were purchased from Active Motif Company (Cat. No. 31380/31446); Streptavidin XL-665 (#610SAXLA) and EPIgeneous Binding Domain Kit A (#62BDAPEG) were purchased from Cisbio Bioassays Company, [Lys(5,8,12,16)Ac]H4(1-21)-biotin (#64989), and [Lys(5,8,12,16)Ac]H4(1-25) were products of AnaSpec company; OTX015 and ABBV-075 were purchased from SelleckChem. 384 Well ProxiPlate (#6008280) was purchased from PerkinElmer. The multifunctional microplate reader used for the experimental was a product of PerkinElmer, model: Envision 2104. The experimental water was Millipore-Q pure water.
(§3) 10 mM of stock solution of compound in DMSO was diluted to 1 mM with DMSO and stored, and then diluted 10 times with Binding Domain dilution buffer (purchased from Cisbio Bioassays) for use (the concentration of DMSO in the final system was […]), 1:5 gradient dilution, a total of 5 concentrations.
(§4) 4. Test Method: 1 Batch, 2 Duplicate Wells
(§5) • 1) 5 μL of test compound was transferred to 45 μL of Binding Domain dilution buffer. • 2) 2 μL of 10× compound (4 μL Binding Domain dilution buffer: positive control; 6 μL enzyme buffer (purchased from Cisbio Bioassays): negative control) was transferred to the reaction plate. • 3) 4 μL of 5×BRD4(1) or BRD4(2) (30 nM in final system) was added to the reaction plate. • 4) 4 μL of 5×[Lys(5,8,12,16)Ac]H4(1-21)-biotin was added to the reaction plate, and the plate was covered with a film, and incubated at 37° C. for 30 min. • 5) A detection mixture of SA-XL665 (2×) and anti-H3K9me0-Eu(K) (2×) was prepared in detection buffer (purchased from Cisbio Bioassays). • 6) 10 μL of detection mixture (2×) was added to each well, and incubated for 3 h at room temperature, and the mp value was read using a multi-plate reader Envision. The parameters were set as follows.
Background: Time-resolved FRET reads energy transfer from a long-lived donor to a nearby acceptor.

The target of test [2] is T2, bromodomain protein BRD4 BD2 (Homo sapiens, UniProt O60885).
T2 construct: The proteins BRD4 BD1/BD2 used in the experiment were purchased from Active Motif Company (Cat. No. 31380/31446); purchased Active Motif 31446
Nature of the test: HTRF in vitro assay, inhibitory activity against BRD4 BD2. It is filed as binding. To be noted: BRD4(2) 30 nM in final system. Here is the method:
as §1, §2, §3, §4, §5

Turning to “4-(methoxy(phenyl)methyl)-6-methyl-2-(1-(oxetan-3-yl)-1H-pyrazol-4-yl)-1-tolyl-1,6-dihydro-7H-pyrrolo[2,3-c]pyridin-7-one [Compound A70]”, the IC50 in test [1] fell in the range of 100 to 1000 nM; in test [2], 10 to 100 nM.

For “4-diphenylmethyl-N-ethylamino-6-methyl-7-oxo-6,7-dihydro-1H-pyrrolo[2,3-c]pyridin-2-carboxamide [Compound A29]”, the IC50 was 100 to 1000 nM in test [1] and 10 to 100 nM in test [2].

Take “6-methyl-7-carbonyl-4-(1-phenylethyl)-N-(1H-pyrazol-4-yl)-6,7-dihydro-1H-pyrrolo[2,3]pyridin-2-carboxamide [Compound A7]”: the IC50 in test [1] is 100 to 1000 nM; in test [2], no more than 10 nM.

For “6-methyl-7-carbonyl-4-(1-phenylethyl)-N-(tetrahydro-2H-pyran-4-yl)-6,7-dihydro-1H-pyrrolo[2,3-c]pyridin-2-carboxamide [Compound A6]”, the figures for the IC50 in test [1] and in test [2] were 100 to 1000 nM and no more than 10 nM, respectively.

As for `Cn1cc(Cc2ccccc2)c2c[nH]cc2c1=O` [Compound A1], the IC50 in test [1] is 100 to 1000 nM; in test [2], 10 to 100 nM.

In the case of `Cn1cc2c(Cc3ccccc3)cn(C)c(=O)c2c1` [Compound A2], the concentration for half-maximal inhibition (IC50) lay within 100 to 1000 nM in test [1] and 10 to 100 nM in test [2].

As to `CCNC(=O)n1cc2c(Cc3ccccc3)cn(C)c(=O)c2c1` [Compound A3, 7-benzyl-N-ethyl-5-methyl-4-oxo-4,5-dihydro-2H-pyrrolo[3,4-c]pyridin-2-carboxamide], the IC50 is 100 to 1000 nM in test [1] and 10 to 100 nM in test [2].

As for `CCNC(=O)n1cc2c(C(OC)c3ccccc3)cn(C)c(=O)c2c1` (stereo not shown) [Compound A4, N-ethyl-7-(methoxy(phenyl)methyl)-5-methyl-4-oxo-4,5-dihydro-2H-pyrrolo[3,4-c]pyridin-2-carboxamide], the half-maximal inhibitory concentration (IC50) is 100 to 1000 nM in test [1] and 10 to 100 nM in test [2].

Consider `CCNC(=O)c1cc2c(C(C)c3ccccc3)cn(C)c(=O)c2[nH]1` (stereo not shown) [Compound A5, N-ethyl-6-methyl-7-oxo-4-(1-phenethyl)-6,7-dihydro-1H-pyrrolo[2,3-c]pyridin-2-carboxamide], for which the IC50 in test [1] was 100 to 1000 nM; in test [2] it was no more than 10 nM.

Consider `CC(c1ccccc1)c1cn(C)c(=O)c2[nH]c(C(=O)NC3CC3)cc12` (stereo not shown) [Compound A8, N-cyclopropyl-6-methyl-7-oxo-4-(1-phenethyl)-6,7-dihydro-1H-pyrrolo[2,3-c]pyridin-2-carboxamide], for which the figures for the IC50 in test [1] and in test [2] were 100 to 1000 nM and no more than 10 nM, respectively.

With `Cn1cc(C(CCO)c2ccccn2)c2cc(C(=O)NC3CC3)[nH]c2c1=O` (stereo not shown) [Compound A9, N-cyclopropyl-4-(3-hydroxy-1-(pyridin-2-yl)propyl)-6-methyl-7-oxo-6,7-dihydro-1H-pyrrolo[2,3-c]pyridin-2-carboxamide], the IC50 in test [1] fell in the range of 100 to 1000 nM; in test [2] it was 10 to 100 nM.

On to `CCNC(=O)c1cc2c(Cc3ccccc3)cn(C)c(=O)c2[nH]1` [Compound A10, 4-benzyl-N-ethylamino-6-methyl-7-oxo-6,7-dihydro-1H-pyrrolo[2,3-c]pyridin-2-carboxamide], for which the IC50 in test [1] was in the range of 100 to 1000 nM; in test [2] it was 10 to 100 nM.

With `CCNC(=O)c1cc2c(C(C)c3cccnc3)cn(C)c(=O)c2[nH]1` (stereo not shown) [Compound A11, N-ethyl-6-methyl-7-oxo-4-(1-(pyridin-3-yl)ethyl)-6,7-dihydro-1H-pyrrolo[2,3-c]pyridin-2-carboxamide], the IC50 in test [1] was 100 to 1000 nM; in test [2], no more than 10 nM.

On to `CC(c1ccccc1)c1cn(C)c(=O)c2[nH]c(C(=O)Nc3cnn(C)c3)cc12` (stereo not shown) [Compound A12, 6-methyl-N-(1-methyl-1H-pyrazol-4-yl)-7-oxo-4-(1-phenethyl)-6,7-dihydro-1H-pyrrolo[2,3-c]pyridin-2-carboxamide], for which the values for the IC50 in test [1] and in test [2] were 100 to 1000 nM and no more than 10 nM, respectively.

Regarding `CC(c1ccc2ccccc2c1)c1cn(C)c(=O)c2[nH]c(C(=O)Nc3cnn(C)c3)cc12` (stereo not shown) [Compound A13], the IC50 is 100 to 1000 nM in test [1] and no more than 10 nM in test [2].

For `CC(c1ccccc1)c1cn(C)c(=O)c2[nH]c(-c3cn[nH]c3)cc12` (stereo not shown) [Compound A15, 6-methyl-4-(1-phenethyl)-2-(1H-pyrazol-4-yl)-1,6-dihydro-7H-pyrrolo[2,3-c]pyridin-7-one], the IC50 in test [1] is 100 to 1000 nM; in test [2], no more than 10 nM.

`CC(c1ccccc1)c1cn(C)c(=O)c2[nH]c(-c3ccnc(C(F)(F)F)c3)cc12` (stereo not shown) [Compound A16, 6-methyl-4-(1-phenethyl)-2-(2-(trifluoromethyl)pyridin-4-yl)-1,6-dihydro-7H-pyrrolo[2,3-c]pyridin-7-one]: the IC50 in test [1] lay in the range of 100 to 1000 nM; in test [2], 10 to 100 nM.

`CC(c1ccccc1)c1cn(C)c(=O)c2[nH]c(-c3cnn(C4COC4)c3)cc12` (stereo not shown) [Compound A17, 6-methyl-2-(1-(oxetan-3-yl)-1H-pyrazol-4-yl)-4-(1-phenethyl)-1,6-dihydro-7H-pyrrolo[2,3-c]pyridin-7-one]: the IC50 in test [1] is 100 to 1000 nM; in test [2] it was no more than 10 nM.

Regarding `CC(c1ccccc1)c1cn(C)c(=O)c2[nH]c(-c3cnn(C)c3)cc12` (stereo not shown) [Compound A18, 6-methyl-2-(1-methyl-1H-pyrazol-4-yl)-4-(1-phenethyl)-1,6-dihydro-7H-pyrrolo[2,3-c]pyridin-7-one], the 50% inhibitory concentration (IC50) is 100 to 1000 nM in test [1] and no more than 10 nM in test [2].

Regarding `CC(c1ccc(F)cc1)c1cn(C)c(=O)c2[nH]c(-c3cn[nH]c3)cc12` (stereo not shown) [Compound A19, 4-(1-(4-fluorophenyl)ethyl)-6-methyl-2-(1H-pyrazol-4-yl)-1,6-dihydro-7H-pyrrolo[2,3-c]pyridin-7-one], the values for the IC50 in test [1] and in test [2] were 100 to 1000 nM and no more than 10 nM, respectively.

Turning to `CC(c1ccccc1)c1cn(C)c(=O)c2[nH]c(-c3cnoc3)cc12` (stereo not shown) [Compound A20, 2-(isoxazol-4-yl)-6-methyl-4-(1-phenethyl)-1H-pyrrolo[2,3-c]pyridin-7(6H)-one], the IC50 in test [1] was in the range of 100 to 1000 nM; in test [2], 10 to 100 nM.

As to `Cc1nocc1-c1cc2c(C(C)c3ccccc3)cn(C)c(=O)c2[nH]1` (stereo not shown) [Compound A21], the values for the IC50 in test [1] and in test [2] were 100 to 1000 nM and 10 to 100 nM, respectively.

`CCNC(=O)c1cc2c(C(C)c3ccc4ccccc4c3)cn(C)c(=O)c2[nH]1` (stereo not shown) [Compound A22, N-ethyl-6-methyl-4-(1-(naphthalen-2-yl)ethyl)-7-oxo-6,7-dihydro-1H-pyrrolo[2,3-c]pyridin-2-carboxamide]: the figures for the IC50 in test [1] and in test [2] were 100 to 1000 nM and 10 to 100 nM, respectively.

Regarding `CCNC(=O)c1cc2c(C(O)c3c(C)cccc3C)cn(C)c(=O)c2[nH]1` (stereo not shown) [Compound A23, (4-(2,6-dimethylphenyl)(hydroxy)methyl)-N-ethyl-6-methyl-7-oxo-6,7-dihydro-1H-pyrrolo[2,3-c]pyridin-2-carboxamide], the IC50 in test [1] lay in the range of 100 to 1000 nM; in test [2], 10 to 100 nM.

Take `CCNC(=O)c1cc2c(/C(=C/c3ccccc3)c3ccccc3)cn(C)c(=O)c2[nH]1` [Compound A24, (E)-4-(1,2-diphenylvinyl)-N-ethyl-6-methyl-7-oxo-6,7-dihydro-1H-pyrrolo[2,3-c]pyridin-2-carboxamide]: the IC50 in test [1] is 100 to 1000 nM; in test [2], 10 to 100 nM.

For `CCNC(=O)c1cc2c(C(C)c3ccc4ccccc4c3)cn(C)c(=O)c2[nH]1` (stereo not shown) [Compound A25], the IC50 lay within 100 to 1000 nM in test [1] and 10 to 100 nM in test [2].

`CCNC(=O)c1cc2c(C(c3ccccc3)c3ccccc3O)cn(C)c(=O)c2[nH]1` (stereo not shown) [Compound A28]: the half-inhibitory concentration (IC50) in test [1] fell in the range of 100 to 1000 nM; in test [2], 10 to 100 nM.

Take `CCNC(=O)c1cc2c(-c3nc4ncccc4n3-c3cc(C)c(F)c(C)c3)cn(C)c(=O)c2[nH]1` [Compound A30, N-ethyl-4-(1-(4-fluoro-3,5-dimethylphenyl)-1H-imidazo[4,5-b]pyridin-2-yl)-6-methyl-7-oxo-6,7-dihydro-1H-pyrrolo[2,3-c]pyridin-2-carboxamide]: the figures for the half-maximal inhibitory concentration (IC50) in test [1] and in test [2] were 10 to 100 nM and no more than 10 nM, respectively.

With `CCNC(=O)c1cc2c(-c3nc4ncccc4n3-c3c(C)cccc3C)cn(C)c(=O)c2[nH]1` [Compound A31, 4-(1-(2,6-dimethylphenyl)-1H-imidazo[4,5-b]pyridin-2-yl)-N-ethyl-6-methyl-7-oxo-6,7-dihydro-1H-pyrrolo[2,3-c]pyridin-2-carboxamide], the results for the IC50 in test [1] and in test [2] were 10 to 100 nM and no more than 10 nM, respectively.
